In the case of O=P(c1ccccc1)(c1ccccc1)c1ccccc1, the solubility (mole fraction) (in benzene, 293.78 K) was 0.055, the solubility (mole fraction) (in benzene, 303.04 K) was 0.0747 and the solubility (mole fraction) (in benzene, 314.12 K) was 0.0963. It also gave a solubility (mole fraction) (in benzene, 323.34 K) of 0.123, a solubility (mole fraction) (in benzene, 333.45 K) of 0.152 and a solubility (mole fraction) (in ethyl acetate, 294.54 K) of 0.023. For the same molecule, the solubility (mole fraction) (in ethyl acetate, 299.09 K) was 0.0275, the solubility (mole fraction) (in ethyl acetate, 303.3 K) was 0.0305 and the solubility (mole fraction) (in ethyl acetate, 308.27 K) was 0.0348. For the same molecule, the solubility (mole fraction) (in ethyl acetate, 313.72 K) was 0.0409, the solubility (mole fraction) (in ethyl acetate, 318.32 K) was 0.0496 and the solubility (mole fraction) (in ethyl acetate, 323.21 K) was 0.0555. The solubility (mole fraction) (in ethyl acetate, 328.65 K) was 0.0659, the solubility (mole fraction) (in toluene, 294.42 K) was 0.0291 and the solubility (mole fraction) (in toluene, 298.74 K) was 0.0346. For the same molecule, the solubility (mole fraction) (in toluene, 303.15 K) was 0.0396, the solubility (mole fraction) (in toluene, 308.36 K) was 0.0487 and the solubility (mole fraction) (in toluene, 313.53 K) was 0.0548. For the same molecule, the solubility (mole fraction) (in toluene, 317.97 K) was 0.0666, the solubility (mole fraction) (in toluene, 323.13 K) was 0.0768 and the solubility (mole fraction) (in toluene, 328.42 K) was 0.0882. It also gave a solubility (mole fraction) (in toluene, 333.77 K) of 0.0998.

Source: BigSolDB 2.1
